Measurements taken from PubChem BioAssay AID330 (DTP/NCI, 2004).
“And” between values parts separate entries of the source, which are not always exact repeats. Identical values can stand only once. Inconclusive results and toxic doses are left out.

Tested on: P388 leukemia ip, CD2F1 mice, survival T/C
Assay: NCI In Vivo Anticancer Drug Screen. Data for tumor model P388 Leukemia (intraperitoneal) in CD2F1 (CDF1) mice
Conditions: endpoint: median survival time, higher = longer survival
Procedure, shortened: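 Mice carrying the transplanted tumor received test compound or vehicle. Survival was recorded in each group, and the value is the treated-group measurement divided by that of the vehicle-treated control group.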

For `COc1cc(NS(C)(=O)=O)ccc1Nc1c2ccccc2nc2ccccc12`, the T/C (dose: 0.25 mg/kg/injection, schedule: Q01DX009 (ip), vehicle: other) was 119 % of control, the T/C (dose: 0.52 mg/kg/injection, schedule: Q01DX009 (ip), vehicle: other) was 151 % of control and the T/C (dose: 0.86 mg/kg/injection, schedule: Q01DX009 (ip), vehicle: other) was 163 % of control. For the same compound, the T/C (dose: 1.0 mg/kg/injection, schedule: Q01DX005 (iv), vehicle: other) was 120 % of control, the T/C (dose: 1.0 mg/kg/injection, schedule: Q01DX009 (ip), vehicle: other) was 157 % of control and the T/C (dose: 1.0 mg/kg/injection, schedule: Q04DX003 (ip), vehicle: other) was 118 % of control. The T/C (dose: 1.44 mg/kg/injection, schedule: Q01DX009 (ip), vehicle: other) was 173 % of control, the T/C (dose: 1.5 mg/kg/injection, schedule: Q04DX003 (ip), vehicle: clinical formulation) was 152 % of control and the T/C (dose: 2.0 mg/kg/injection, schedule: Q01DX005 (ip), vehicle: other) was 153 % of control and 163 % of control. For the same compound, the T/C (dose: 2.0 mg/kg/injection, schedule: Q01DX005 (oral), vehicle: other) was 111 % of control, the T/C (dose: 2.0 mg/kg/injection, schedule: Q01DX009 (ip), vehicle: other) was 175 % of control and 195 % of control and the T/C (dose: 2.0 mg/kg/injection, schedule: Q04DX003 (oral), vehicle: other) was 111 % of control. For the same compound, the T/C (dose: 2.4 mg/kg/injection, schedule: Q01DX009 (ip), vehicle: other) was 209 % of control, the T/C (dose: 2.5 mg/kg/injection, schedule: Q04DX002 (ip), vehicle: clinical formulation) was 153 % of control and 173 % of control and the T/C (dose: 2.5 mg/kg/injection, schedule: Q04DX003 (ip), vehicle: other) was 155 % of control. For the same compound, the T/C (dose: 2.59 mg/kg/injection, schedule: Q04DX003 (ip), vehicle: clinical formulation) was 167 % of control, the T/C (dose: 2.59 mg/kg/injection, schedule: Q04DX003 (ip), vehicle: saline) was 168 % of control and the T/C (dose: 2.59 mg/kg/injection, schedule: Q04DX003 (ip), vehicle: water) was 161 % of control and 163 % of control and 179 % of control. The T/C (dose: 2.6 mg/kg/injection, schedule: Q04DX002 (ip), vehicle: other) was 160 % of control, the T/C (dose: 3.0 mg/kg/injection, schedule: Q04DX003 (ip), vehicle: clinical formulation) was 160 % of control and the T/C (dose: 4.0 mg/kg/injection, schedule: Q01DX005 (ip), vehicle: other) was 183 % of control and 207 % of control. For the same compound, the T/C (dose: 4.0 mg/kg/injection, schedule: Q01DX005 (iv), vehicle: other) was 154 % of control, the T/C (dose: 4.0 mg/kg/injection, schedule: Q01DX005 (oral), vehicle: other) was 120 % of control and the T/C (dose: 4.0 mg/kg/injection, schedule: Q01DX009 (ip), vehicle: other) was 192 % of control and 223 % of control and 90 % of control. The T/C (dose: 4.0 mg/kg/injection, schedule: Q04DX003 (ip), vehicle: other) was 163 % of control, the T/C (dose: 4.0 mg/kg/injection, schedule: Q04DX003 (oral), vehicle: other) was 119 % of control and the T/C (dose: 4.3 mg/kg/injection, schedule: Q04DX002 (ip), vehicle: other) was 179 % of control. The T/C (dose: 4.32 mg/kg/injection, schedule: Q04DX003 (ip), vehicle: clinical formulation) was 173 % of control, the T/C (dose: 4.32 mg/kg/injection, schedule: Q04DX003 (ip), vehicle: saline) was 175 % of control and the T/C (dose: 4.32 mg/kg/injection, schedule: Q04DX003 (ip), vehicle: water) was 169 % of control and 176 % of control and 180 % of control. The T/C (dose: 5.0 mg/kg/injection, schedule: Q04DX002 (ip), vehicle: clinical formulation) was 172 % of control and 186 % of control, the T/C (dose: 5.0 mg/kg/injection, schedule: Q04DX003 (ip), vehicle: other) was 156 % of control and 161 % of control and 193 % of control and the T/C (dose: 6.0 mg/kg/injection, schedule: Q04DX003 (ip), vehicle: clinical formulation) was 203 % of control. The T/C (dose: 6.0 mg/kg/injection, schedule: Q04DX003 (ip), vehicle: saline with Tween-80) was 175 % of control, the T/C (dose: 6.25 mg/kg/injection, schedule: Q04DX002 (oral), vehicle: other) was 101 % of control and 106 % of control and the T/C (dose: 7.2 mg/kg/injection, schedule: Q04DX003 (ip), vehicle: clinical formulation) was 216 % of control. The T/C (dose: 7.2 mg/kg/injection, schedule: Q04DX003 (ip), vehicle: saline) was 214 % of control, the T/C (dose: 7.2 mg/kg/injection, schedule: Q04DX003 (ip), vehicle: water) was 197 % of control and 204 % of control and 219 % of control and the T/C (dose: 8.0 mg/kg/injection, schedule: Q01DX005 (ip), vehicle: other) was 193 % of control. The T/C (dose: 8.0 mg/kg/injection, schedule: Q04DX003 (ip), vehicle: other) was 158 % of control and 204 % of control, the T/C (dose: 8.0 mg/kg/injection, schedule: Q04DX003 (ip), vehicle: saline with Tween-80) was 182 % of control and 235 % of control and the T/C (dose: 8.0 mg/kg/injection, schedule: Q04DX003 (oral), vehicle: other) was 123 % of control. The T/C (dose: 10.0 mg/kg/injection, schedule: Q04DX002 (ip), vehicle: clinical formulation) was 216 % of control and 238 % of control, the T/C (dose: 10.0 mg/kg/injection, schedule: Q04DX003 (ip), vehicle: other) was 182 % of control and 204 % of control and 245 % of control and the T/C (dose: 10.8 mg/kg/injection, schedule: Q01DX001 (ip), vehicle: other) was 153 % of control. For the same compound, the T/C (dose: 12.0 mg/kg/injection, schedule: Q04DX003 (ip), vehicle: clinical formulation) was 207 % of control and 228 % of control, the T/C (dose: 12.0 mg/kg/injection, schedule: Q04DX003 (ip), vehicle: saline) was 261 % of control and the T/C (dose: 12.0 mg/kg/injection, schedule: Q04DX003 (ip), vehicle: water) was 230 % of control and 231 % of control. The T/C (dose: 12.5 mg/kg/injection, schedule: Q04DX002 (oral), vehicle: other) was 107 % of control and 117 % of control, the T/C (dose: 16.0 mg/kg/injection, schedule: Q04DX003 (ip), vehicle: other) was 193 % of control and 245 % of control and the T/C (dose: 18.0 mg/kg/injection, schedule: Q01DX001 (ip), vehicle: other) was 165 % of control. For the same compound, the T/C (dose: 18.0 mg/kg/injection, schedule: Q04DX003 (ip), vehicle: saline with Tween-80) was 191 % of control and 264 % of control, the T/C (dose: 20.0 mg/kg/injection, schedule: Q01DX001 (ip), vehicle: saline with Tween-80) was 117 % of control and the T/C (dose: 20.0 mg/kg/injection, schedule: Q04DX002 (ip), vehicle: clinical formulation) was 281 % of control. For the same compound, the T/C (dose: 22.5 mg/kg/injection, schedule: Q04DX003 (ip), vehicle: saline with Tween-80) was 198 % of control, the T/C (dose: 25.0 mg/kg/injection, schedule: Q04DX002 (oral), vehicle: other) was 120 % of control and the T/C (dose: 25.0 mg/kg/injection, schedule: Q04DX003 (ip), vehicle: saline with Tween-80) was 161 % of control. The T/C (dose: 30.0 mg/kg/injection, schedule: Q01DX001 (ip), vehicle: other) was 180 % of control, the T/C (dose: 30.0 mg/kg/injection, schedule: Q01DX001 (ip), vehicle: saline with Tween-80) was 120 % of control and the T/C (dose: 32.0 mg/kg/injection, schedule: Q04DX003 (oral), vehicle: other) was 172 % of control. For the same compound, the T/C (dose: 40.0 mg/kg/injection, schedule: Q01DX001 (ip), vehicle: saline with Tween-80) was 228 % of control, the T/C (dose: 40.0 mg/kg/injection, schedule: Q04DX003 (ip), vehicle: other) was 86 % of control and the T/C (dose: 45.0 mg/kg/injection, schedule: Q04DX003 (ip), vehicle: saline with Tween-80) was 187 % of control and 222 % of control and 274 % of control. For the same compound, the T/C (dose: 50.0 mg/kg/injection, schedule: Q01DX001 (ip), vehicle: saline with Tween-80) was 124 % of control, the T/C (dose: 50.0 mg/kg/injection, schedule: Q04DX002 (oral), vehicle: other) was 151 % of control and 168 % of control and the T/C (dose: 50.0 mg/kg/injection, schedule: Q04DX003 (oral), vehicle: other) was 91 % of control. The T/C (dose: 60.0 mg/kg/injection, schedule: Q01DX001 (ip), vehicle: saline with Tween-80) was 252 % of control.
